Counter-ions that a name gives are not always drawn. Like-named read-outs stand apart in the source and are kept apart here.
Columns and labels:
[1] = test system: A/Puerto Rico/8/1934 (H1N1); experiment: microbe, parasite or virus in culture; details: Influenza A virus, H1N1, MDCK, 72 h, read-out: EC50 against A/Puerto Rico/8/1934 (H1N1)
[2] = test system: A/California/7/2009 (H1N1); experiment: microbe, parasite or virus in culture; details: Influenza A virus, H1N1, MDCK, 72 h, read-out: EC50 against A/California/7/2009 (H1N1)
[3] = Cytotoxicity to mock-infected MDCK cells (MTT); details: dog
[4] = test system: A/Brisbane/59/2007 (H1N1); experiment: microbe, parasite or virus in culture; details: Influenza A virus, H1N1, MDCK, 72 h, read-out: EC50 against A/Brisbane/59/2007 (H1N1)
A/Seoul/11/1988 (H3N2) [5] = experiment: microbe, parasite or virus in culture; details: Influenza A virus, H3N2, MDCK, 72 h, read-out: EC50 against A/Seoul/11/1988 (H3N2)
[6] = test system: A/Victoria/361/2011-like (H3N2); experiment: microbe, parasite or virus in culture; details: Influenza A virus, H3N2, MDCK, 72 h, read-out: EC50 against A/Victoria/361/2011-like (H3N2)
[7] = test system: A/Brisbane/59/2007 (H1N1); details: MDCK cells
[8] = test system: A/Hong Kong/8/1968 (H3N2)
B/Brisbane/60/2008 [9] = experiment: microbe, parasite or virus in culture; details: Influenza B virus, MDCK, 72 h, read-out: EC50 against B/Brisbane/60/2008
A/Perth/16/2009 (H3N2) [10] = experiment: microbe, parasite or virus in culture; details: Influenza A virus, H3N2, MDCK, 72 h, read-out: EC50 against A/Perth/16/2009 (H3N2)
B/Lee/40 [11] = experiment: microbe, parasite or virus in culture; details: Influenza B virus, MDCK, 72 h, read-out: EC50 against B/Lee/40
[12] = test system: A/Hong Kong/8/1968 (H3N2); experiment: microbe, parasite or virus in culture; details: Influenza A virus, H3N2, MDCK, 72 h, read-out: EC50 against A/Hong Kong/8/1968 (H3N2)
[13] = test system: A/Brisbane/10/2007 (H3N2); experiment: microbe, parasite or virus in culture; details: Influenza A virus, H3N2, MDCK, 72 h, read-out: EC50 against A/Brisbane/10/2007 (H3N2)
[14] = test system: A/Puerto Rico/8/1934 (H1N1); details: MDCK cells
A/Seoul/11/1988 (H3N2) [15] = details: MDCK cells
[16] = test system: PR8 virus (viral proteins NP, HA, M1); format: cell-based, influenza A virus; details: […]; nylidrin 100 μM, OSV-C 10 μM, RBV 100 μM
influenza B strain (Lee) = experiment: Chemical library screen, CPE reduction assay, influenza B; format: cell-based, influenza B virus; details: 20 µM
[17] = test system: A/California/7/2009 (H1N1); details: MDCK cells
[18] = test system: influenza A viruses (PR8 and HK); experiment: microbe, parasite or virus in culture; details: PR8, MDCK, read-out: viability of infected MDCK cells
B/Lee/40 [19] = test system: B/Lee/40
[20] = test system: A/Brisbane/10/2007 (H3N2)
B/Brisbane/60/2008 [21] = details: MDCK cells
A/Perth/16/2009 (H3N2) [22] = details: MDCK cells
in vitro = details: dog
[23] = test system: A/Victoria/361/2011-like (H3N2); details: MDCK cells

| SMILES | EC50 [1] [µM] | EC50 [2] [µM] | CC50 at 3 days [3] [µM] | EC50 [4] [µM] | EC50 (A/Seoul/11/1988 (H3N2) [5]) [µM] | EC50 [6] [µM] | S.I. (CC50/EC50), A/Brisbane/59/2007 (H1N1) [7] | S.I. (CC50/EC50), A/Hong Kong/8/1968 (H3N2) [8] | EC50 (B/Brisbane/60/2008 [9]) [µM] | EC50 (A/Perth/16/2009 (H3N2) [10]) [µM] | EC50 (B/Lee/40 [11]) [µM] | EC50 [12] [µM] | EC50 [13] [µM] | S.I. (CC50/EC50), A/Puerto Rico/8/1934 (H1N1) [14] | S.I. (CC50/EC50), A/Seoul/11/1988 (H3N2) (A/Seoul/11/1988 (H3N2) [15]) | viral proteins NP, HA and M1 (western blot) [16] | S.I. (CC50/EC50), A/California/7/2009 (H1N1) [17] | other results |
| --- | --- | --- | --- | --- | --- | --- | --- | --- | --- | --- | --- | --- | --- | --- | --- | --- | --- | --- |
| NC12CC3CC(CC(C3)C1)C2 [AMT, amantadine hydrochloride] | > 100 | > 100 | > 900 | 1.2 ± 0.4 | 0.3 ± 0.1 | > 100 | (>750) | (>1200) | > 100 | > 100 | > 100 | 0.8 ± 0.1 | > 100 |  |  |  |  |  |
| CC(CCc1ccccc1)NC(C)C(O)c1ccc(O)cc1 (stereo not drawn) [Nylidrin, nylidrin] | 7.2 ± 0.2 | 1.7 ± 0.5 | 549.2 ± 0.5 | 3.5 ± 1.6 | 38.8 ± 19.4 | > 100 | (156.9) |  | > 100 | > 100 | > 100 | 12.1 ± 1.6 | > 100 | (76.3) | (14.3) | not detected | (332.8) | S.I. (CC50/EC50), A/Puerto Rico/8/1934 (H1N1) ([14]; listed as nylidrin): 76.3; CPE-reduction (influenza B strain (Lee)): no benefit; viability at 20 µM [18]: 80% |
| CC(C(O)c1ccc(O)cc1)N1CCC(Cc2ccccc2)CC1 (stereo not drawn) [Ifenprodil, ifenprodil] | 6.6 ± 0.4 | 1.1 ± 0.1 | 488.2 ± 0.5 | 5.1 ± 0.3 | 37.9 ± 7.7 | > 100 | (96.7) | (29.0) | > 100 | > 100 | > 100 | 16.9 ± 3 | > 100 | (74.0) |  |  | (465.0) |  |
| CCC(CC)O[C@@H]1C=C(C(=O)O)C[C@H](N)[C@H]1NC(C)=O [OSV-C, oseltamivir carboxylate] | 0.04 ± 0.01 | 0.02 |  | 0.02 | < 0.005 | < 0.005 | (>58,065) | (>180,000) | 53.1 ± 25.2 | 0.03 ± 0.02 | 0.8 ± 0.03 | < 0.005 | 0.53 ± 0.16 | (>25,714) | (>180,000) | not detected | (>58,065) | S.I. (CC50/EC50), B/Lee/40 (B/Lee/40 [19]): (>1125); S.I. (CC50/EC50), A/Brisbane/10/2007 (H3N2) [20]: (>1714); S.I. (CC50/EC50), B/Brisbane/60/2008 (B/Brisbane/60/2008 [21]): (>17.0); S.I. (CC50/EC50), A/Perth/16/2009 (H3N2) (A/Perth/16/2009 (H3N2) [22]): (>30,000); CC50 at 3 days (in vitro): > 900 µM; S.I. (CC50/EC50), A/Victoria/361/2011-like (H3N2) [23]: (>180,000) |
| CC(NCCc1ccc(O)cc1)C(O)c1ccc(O)cc1 (stereo not drawn) [Ritodrine, ritodrine] | > 100 |  | > 900 |  |  |  |  |  |  |  | > 100 | > 100 |  |  |  |  |  |  |
| CC(C)(C)NCC(O)c1cc(Cl)c(N)c(Cl)c1 (stereo not drawn) [Clenbuterol, clenbuterol] | 9.4 ± 4.6 | 13.7 ± 3.6 |  | 12.9 ± 0.3 | > 100 | > 100 | (>69.8) |  | > 100 | > 100 | > 100 | > 100 | > 100 | (>96.3) |  |  | (>65.9) | CC50 (in vitro): > 900 µM |

From paper PMC7290441 (Viruses, 2020)
